Source: patent US20190192458A1, “THERAPEUTIC/PROPHYLACTIC AGENT FOR GRAFT-VERSUS-HOST DISEASE, FIBROCYTE INVASION INHIBITOR, AND INHIBITOR AGAINST TEAR REDUCTION AND REDUCTION IN GOBLET CELLS” (KEIO UNIVERSITY, priority 2016, published 2019)

How the values were obtained:
[1] = test system: endoplasmic reticulum stress markers and related inflammation markers in cGVHD target organs; assay: Immunoblot analysis of endoplasmic reticulum stress markers and related inflammation markers in cGVHD target organs; format: in vivo, mouse; conditions: n=4
Method: (§1) Bone marrow transplantation was performed as described in the above section “Bone marrow transplantation,” and the resulting allogeneic bone marrow transplantation recipient mice were divided into two groups. One group was treated with intraperitoneal injection of PBA (10 mg/kg) (Aldrich) while the other was treated with intraperitoneal injection of a solvent vehicle⋅phosphate buffered saline (PBS) (pH 7.4). The allogeneic bone marrow transplantation recipients received once-daily administration of PBA or the solvent vehicle from Day 10 to Day 27 after bone marrow transplantation. They were sacrificed on Day 28 after bone marrow transplantation.
cGVHD-affected organs (exorbital lacrimal gland, proximal portion of the small intestine, dorsal skin, liver, salivary gland, lung, large intestine, and eyes) were analyzed herein.
(§2) Tissues of interest were each placed into an Eppendorf tube, and a pre-cooled RIPA buffer solution was then added to the tube. Subsequently, the tissues were each homogenized with an electric homogenizer. Samples were each allowed to stand on ice for 1 hour, and then centrifuged at 15000 rpm for 5 minutes at 4° C. Then, the supernatants were each collected in a fresh tube on ice, and used as a cell lysate. The cell lysates each received the same amount of a 5×Laemmli buffer solution, and each was heated at 100° C. for 5 minutes to denature proteins.
(§3) An aliquot of each sample having the same amount of proteins was loaded into a well of an SDS-PAGE gel, and then […]. Proteins were transferred from the gel to a membrane at 15 V for 20 minutes. The membrane was blocked at room temperature for 1 hour with 5% skim milk or 5% BSA (bovine serum albumin) in 1×TBST (a mixture of Tris-buffered saline and Tween 20). Subsequently, the membrane was incubated with a primary antibody at 4° C. overnight. The above primary antibody was diluted 1000 times with 5% skim milk or 5% BSA in 1×TBST. After incubation with the primary antibody, the membrane was washed with 1×TBST (3×10 minutes), and subjected to a secondary antibody at room temperature for 1 hour, and then washed with 1×TBST (3×10 minutes) and 1×TBS (2×10 minutes).
Proteins of interest were visualized by either one of the following two methods. (1) A target protein was colorimetrically detected using a BCIP/NBT substrate (Promega). (2) A signal was developed with an enhanced chemiluminescence (ECL) detection reagent (GE Healthcare), and a target protein was then visualized with an LAS4000 mini chemiluminescence imaging system (FUJIFILM Corporation/GE Healthcare).
The intensity of the resulting protein band was analyzed using image processing software ImageJ. Primary antibodies used in the experiments were GRP78 (Abcam), phospho-PERK (Thr980; Cell Signaling Technology Inc.), PERK (C33E10; Cell Signaling Technology Inc.), phosphor-IRE1α (Thermo Fisher Sceientific), IRE1α (14C10; Cell Signaling Technology Inc.), phosphor-eIF2α (119A11; Cell Signaling Technology Inc.), eIF2α (Cell Signaling Technology Inc.), CHOP (9C8; Thermo Fisher Scientific), TXNIP (D5F3E, Cell Signaling Technology Inc.), NF-κB (Abcam), HSP47 (SPA-470; Stress-Gen Biotechnologies Corp.), CTGF (Abcam), and β-actin (AC-15; Abcam).
With regard to the secondary antibody, (1) either AP-conjugated anti-mouse IgG antibody (Promega) or AP-conjugated anti-rabbit IgG antibody (Promega) was used when protein bands were chromogenically visualized; (2) HRP-conjugated anti-mouse antibody (Thermo Fisher Scientific) or HRP-conjugated anti-rabbit antibody (Thermo Fisher Scientific) was used when target proteins were detected by ECL.

[2] = test system: mouse lacrimal gland fibroblasts; assay: Cultured lacrimal gland fibroblasts from PBA-treated and vehicle-treated mice (immunoblot, ELISA, qPCR); format: cell-based
Method: as §1
Fibroblasts from a mouse lacrimal gland were cultured by an established method reported by Yaguchi et al. (Yaguchi S, Ogawa Y, Shimmura S, et al., Presence and Physiologic Function of the Renin—Angiotensin System in Mouse Lacrimal Gland. Investigative Ophthalmology & Visual Science, 2012; 53: 5416-5425). A mouse lacrimal gland was collected and cut into small pieces. The tissue pieces were incubated at 37° C. in DMEM (Life Technologies Japan Ltd.) containing 5% of fetal bovine serum (FBS) Sigma), and 5% of an antibiotic. The antibiotic included a 1:1 mixture of streptomycin sulfate (Meiji Seika Pharma Co., Ltd.) and benzylpenicillin potassium (Meiji Seika Kaisha, Ltd.). The small pieces were used to grow fibroblasts starting from 3 to 4 days later. Fibroblasts were cultured in DMEM containing 5% of FBS and 5% of the antibiotic, and were used in experiments after 3 to 5 passages. Trypsin (Becton Dickinson) was used to detach fibroblasts from the culture dish.
The total RNA was extracted from the exorbital lacrimal gland, the proximal portion of the small intestine, the dorsal skin, the liver, the cultured fibroblasts, and the cultured macrophages using a miRNeasy mini kit (Qiagen), and the corresponding complementary DNAs were synthesized using a Rever Tra Ace qPCR RT kit (Toyobo Co., Ltd.). Primers used for analyzing the mRNA expression of the following genes with the TaqMan real-time polymerase chain reaction (PCR) were purchased from Applied Biosystems: housekeeping gene […] (GAPDH), glucose-regulated protein 78 (GRP78), Interleukin-1β (IL-1β), IL-6, IL-10, macrophage chemoattractant protein-1 (MCP-1), and transcription growth factor-β (TGF). A Step One Plus system (Applied Biosystems) was used to perform quantitative real time PCR, and the resulting data was analyzed by the 2^−ΔΔCT method. GAPDH was used as an internal standard for measuring the expression of mRNA.
as §2, §3
Proteins of interest were visualized by either one of the following two methods. […]

[3] = PBA-treated vs vehicle-treated organs
[4] = organs of PBA-treated (10 mg/kg i.p.) vs vehicle-treated cGVHD mice
[5] = PBA-treated vs vehicle-treated fibroblasts, immunoblot, n=4
[6] = cultured fibroblasts from PBA-treated vs vehicle-treated mice, immunoblot

SMILES: O=C(O)CCCc1ccccc1 [PBA, 4-phenyl-n-butyric acid]
- proinflammatory molecule NF-κB in organs [1, 3]: inhibited
- proinflammatory molecule TXNIP in organs [1, 3]: inhibited
- protein level of CHOP in organs [1, 4]: lower protein levels
- protein level of GRP78 in organs [1, 4]: lower protein levels
- protein level of p-IRE1α in organs [1, 4]: lower protein levels
- protein level of p-PERK in organs [1, 4]: lower protein levels
- protein level of p-eIF2α in organs [1, 4]: lower protein levels
- production of MCP-1 by lacrimal gland fibroblasts ([2]; PBA-treated vs vehicle-treated fibroblasts, ELISA, n=4): decreased
- protein level of CTGF in lacrimal gland fibroblasts [2, 5]: decreased
- protein level of HSP47 in lacrimal gland fibroblasts [2, 5]: decreased
- mRNA levels of IL-6 in lacrimal gland fibroblasts ([2]; PBA-treated vs vehicle-treated fibroblasts, qPCR, n=4): decreased
- CHOP in lacrimal gland fibroblasts [2, 6]: markedly inhibited
- GRP78 in lacrimal gland fibroblasts [2, 6]: markedly inhibited
- phosphorylated IRE1α in lacrimal gland fibroblasts [2, 6]: markedly inhibited
- phosphorylated PERK in lacrimal gland fibroblasts [2, 6]: markedly inhibited
- phosphorylated eIF2α in lacrimal gland fibroblasts [2, 6]: markedly inhibited
